Test results published in US4503043A, “Substituted acyl derivatives of octahydro-1H-isoindole-1-carboxylic acids” (Warner-Lambert Company, priority 1982, dated 1985).
Where a name gives a salt, the structure may show the parent alone.

Target: T1, guinea pig serum ACE (angiotensin converting enzyme) (Cavia porcellus, UniProt H0UWL7)
T1 construct: ACE from guinea pig serum; from tissue; host or cells: guinea pig serum
T1 sequence (H0UWL7 33-1302): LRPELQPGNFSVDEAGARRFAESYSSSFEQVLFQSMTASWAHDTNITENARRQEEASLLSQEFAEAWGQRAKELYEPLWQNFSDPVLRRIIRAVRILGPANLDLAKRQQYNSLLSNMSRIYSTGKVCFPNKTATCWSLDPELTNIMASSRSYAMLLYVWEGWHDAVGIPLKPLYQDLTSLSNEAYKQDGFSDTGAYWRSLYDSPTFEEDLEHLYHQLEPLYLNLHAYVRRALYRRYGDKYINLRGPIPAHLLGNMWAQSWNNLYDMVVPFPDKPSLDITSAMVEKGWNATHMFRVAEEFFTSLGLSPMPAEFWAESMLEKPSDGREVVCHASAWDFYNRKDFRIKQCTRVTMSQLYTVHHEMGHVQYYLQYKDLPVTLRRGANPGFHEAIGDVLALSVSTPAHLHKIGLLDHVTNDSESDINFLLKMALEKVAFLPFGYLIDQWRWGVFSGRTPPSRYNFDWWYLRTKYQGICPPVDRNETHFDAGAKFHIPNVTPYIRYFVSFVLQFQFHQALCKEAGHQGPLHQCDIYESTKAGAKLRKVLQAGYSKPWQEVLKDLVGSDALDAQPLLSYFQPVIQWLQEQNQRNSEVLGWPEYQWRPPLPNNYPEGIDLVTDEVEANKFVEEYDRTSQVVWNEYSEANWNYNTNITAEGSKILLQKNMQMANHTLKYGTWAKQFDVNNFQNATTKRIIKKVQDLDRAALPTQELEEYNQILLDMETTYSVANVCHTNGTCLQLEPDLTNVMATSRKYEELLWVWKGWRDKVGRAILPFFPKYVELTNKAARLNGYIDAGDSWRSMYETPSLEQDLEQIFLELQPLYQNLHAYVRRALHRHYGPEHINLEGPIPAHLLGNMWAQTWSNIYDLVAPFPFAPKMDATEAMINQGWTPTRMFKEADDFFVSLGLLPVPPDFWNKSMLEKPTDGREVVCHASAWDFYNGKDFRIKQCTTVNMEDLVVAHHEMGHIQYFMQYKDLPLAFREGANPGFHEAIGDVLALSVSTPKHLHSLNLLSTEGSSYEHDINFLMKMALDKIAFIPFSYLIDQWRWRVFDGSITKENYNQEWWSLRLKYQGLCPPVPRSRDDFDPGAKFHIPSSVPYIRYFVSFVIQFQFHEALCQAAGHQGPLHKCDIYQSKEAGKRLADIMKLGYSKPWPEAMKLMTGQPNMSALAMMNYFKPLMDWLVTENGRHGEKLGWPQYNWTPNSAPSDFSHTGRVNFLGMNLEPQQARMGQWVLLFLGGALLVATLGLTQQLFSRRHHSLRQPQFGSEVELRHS
Assay: In vitro ACE Assay (angiotensin converting enzyme inhibitory activity)
Type: biochemical
Settings: 10 min preincubation, substrate 3H-hippuryl-glycylglycine, 60 min at 37° C.
Protocol: In vitro ACE Assay: Angiotensin converting enzyme (ACE) inhibitory activity is determined by assaying guinea pig serum ACE in the presence and absence of the test compound. ACE from guinea pig serum and the test compounds are preincubated for 10 minutes before the addition of the labelled substrate ^3 H-hippuryl-glycylglycine. After a 60 minute incubation at 37° C. the reaction is stopped by the addition of 0.1N HCl. ACE cleaves the hippuryl-glycyl bond to form the dipeptide glycyl-glycine and ^3 H-hippuric acid. The ^3 H-hippuric acid is then extracted with ethyl acetate and the ACE inhibition of a given sample calculated on the basis of the ^3 H-hippuric acid generated.

Structure (SMILES) | IC50 [nM]
CC(=O)SCCC(=O)N1CC2CCCCC2C1C(=O)O (centres unmarked) [Example 1, 2-[3-(Acetylthio)-1-oxopropyl]octahydro-1H-isoindole-1-carboxylic acid] | 1200
O=C(O)C1C2CCCCC2CN1C(=O)CCS (centres unmarked) [Example 2, 2-(3-Mercaptopropanoyl)octahydro-1H-isoindole-1-carboxylic acid, dicyclohexylamine salt] | 24
CC(=O)SCCC(=O)N1C(=O)C2CCCCC2C1C(=O)O (centres unmarked) [Example 5, 2-[3-Acetylthio-1-oxopropyl]octahydro-3-oxo-1H-isoindole-1-carboxylic acid, dicyclohexylamine salt] | 660
O=C(O)C1C2CCCCC2C(=O)N1C(=O)CCS (centres unmarked) [Example 6, 2-[3-Mercapto-1-oxopropyl]octahydro-3-oxo-1H-isoindole-1-carboxylic acid, dicyclohexylamine salt] | 13
CC(=O)SCC(C)C(=O)N1C(=O)C2CCCCC2C1C(=O)O (centres unmarked) [Example 7, 2-[3-(Acetylthio)-2-methyl-1-oxopropyl]octahydro-3-oxo-1H-isoindole-1-carboxylic acid, dicyclohexylamine salt] | 280
CC(CS)C(=O)N1C(=O)C2CCCCC2C1C(=O)O (centres unmarked) [Example 8, 2-[3-(Mercapto-2-methyl-1-oxopropyl]octahydro-3-oxo-1H-isoindole-1-carboxylic acid, dicyclohexylamine salt] | 14

The remaining lines, values ahead:

IC50 [nM] | Structure (SMILES)
420 | CC(=O)SCC(C)C(=O)N1CC2CCCCC2C1C(=O)O (centres unmarked) [Example 3, 2-[3-(Acetylthio)-2-methyl-1-oxopropyl]octahydro-1H-isoindole-1-carboxylic acid]
28 | CC(CS)C(=O)N1CC2CCCCC2C1C(=O)O (centres unmarked) [Example 4, 2-[3-Mercapto-2-methyl-1-oxopropyl]octahydro-1H-isoindole-1-carboxylic acid]
170 | CCOC(=O)C(CCc1ccccc1)NC(C)C(=O)N1CC2CCCCC2C1C(=O)O (centres unmarked) [Example 12, 2-[2-[(1-Carbethoxy-3-phenylpropyl)amino]-1-oxopropyl]-octahydro-1H-isoindole-1-carboxylic acid, hydrochloride]
2.6 | CC(NC(CCc1ccccc1)C(=O)O)C(=O)N1CC2CCCCC2C1C(=O)O (centres unmarked) [Example 13, 2-[2-[(1-Carboxy-3-phenylpropyl)amino]-1-oxopropyl]-octahydro-1H-isoindole-1-carboxylic acid]
340 | CCOC(=O)[C@H](CCc1ccccc1)N[C@@H](C)C(=O)N1C(=O)C2CCCCC2C1C(=O)O (some centres unmarked) [Example 14, 2-[2-[(1-carbethoxy-3-phenylpropyl)amino]-1-oxopropyl]-octahydro-3-oxo-1H-isoindole-1-carboxylic acid, hydrochloride]
